From PMC11232109, “Synthesis, anticancer evaluation of novel hybrid pyrazole-based chalcones, molecular docking, DNA fragmentation, and gene expression: in vitro studies” (RSC Advances, 2024)

Experiments:
Type in all cases: cell-based
[1] = tested on: MCF7 (human breast adenocarcinoma); assay: MTT assay, MCF7; conditions: Homo sapiens, MTT; for cytotoxicity at 100 µg/mL: at 100 μg ml^−1, 48 hours
Protocol: (§1) The percentage of the cell viability treated with the newly synthesized compounds was evaluated using MTT assay (3-(4,5-dimethylthiazol-2-yl)-2,5-diphenyl tetrazolium bromide). All the subsequent steps were done in a sterile Laminar flow class II biosafety cabinet (Baker, SG406INT, Sanford, ME, USA). DMEM was used as a suspension medium for breast cancer (MCF7), prostate cancer (PC3), and pancreatic cancer (PACA2), while normal cell line (BJ1) was suspended in DMEM-F12 medium, a 1% antibiotic-antimycotic mixture (10 000 U ml^−1 potassium penicillin, 10 000 μg ml^−1 streptomycin sulfate, and 25 μg ml^−1 amphotericin B), and 1% L-glutamine at 37 °C under 5% CO2.
(§2) Cells were cultured for 10 days and then seeded at a concentration of 10 × 10^4 cells per well in fresh complete growth medium in 96-well microtiter plastic plates at 37 °C for 24 hours under 5% CO2 using a water-jacketed carbon dioxide incubator (Sheldon, TC2323). Media were aspirated, serum-free fresh medium was added, and cells were incubated either alone (negative control) or with different concentrations of the synthesized chalcone derivatives to a final concentration of (100–50–25–12.5–6.25–3.125–0.78 and 1.56 μg ml^−1). After incubation for 48 hours, the medium was aspirated and 40 μl of MTT salt ([…]) was added to each well and incubated for another four hours at 37 °C under 5% CO2. To stop the reaction and dissolve the formed crystals, 200 μl of 10% sodium dodecyl sulfate (SDS) in deionized water was added to each well and incubated overnight at 37 °C.
(§3) The absorbance was then measured at 595 nm and a reference wavelength of 620 nm using a microplate multi-well reader (Bio-Rad Laboratories Inc., model 3350). Statistical significance was tested between the samples and the negative control (cells with vehicle) using an independent t-test using the SPSS 11 program. DMSO was the vehicle used for the dissolution of the synthesized chalcones, and its final concentration on the cells was less than 0.2%. The percentage of change in viability was calculated according to the formula: ((reading of extract/reading of negative control) − 1) × 100. A Probit analysis was carried out for the determination of IC50 using the SPSS 11 program.

[2] = tested on: PACA2 (pancreatic carcinoma); assay: MTT assay, PACA2; conditions: Homo sapiens, PaCa-2, 48 h, MTT, read-out: (%) Mortality of PACA2; for cytotoxicity at 100 µg/mL: at 100 μg ml^−1, 48 hours
Protocol: as §1, §2, §3

PC3 (prostatic cancer) = assay: MTT assay, PC3; conditions: Homo sapiens, 48 h, MTT, read-out: (%) Mortality of PC3; for cytotoxicity at 100 µg/mL: at 100 μg ml^−1, 48 hours
Protocol: as §1, §2, §3

[3] = MTT assay, normal cell line BJ1; conditions: human, BJ1 normal skin fibroblasts, at 100 μg ml^−1, 48 hours, read-out: (%) Mortality of BJ1
Protocol: as §1, §2, §3

[4] = tested on: BJ1 (normal skin fibroblasts); assay: MTT assay, normal cell line BJ1; conditions: Skin fibroblast, 48 hours
Protocol: as §1, §2, §3

[5] = MCF7, 48 h, read-out: (%) Mortality of MCF7

IC50 ([1]; MCF7, 48 hours) [µM] | Compound | cytotoxicity at 100 µg/mL [1, 5] [%] | cytotoxicity at 100 µg/mL [2] [%] | cytotoxicity at 100 µg/mL (PC3 (prostatic cancer)) [%] | cytotoxicity at 48 h, 100 μg ml^−1 [3] [%] | cytotoxicity at 6.25 µg/mL ([1]; MCF7, 48 h, up to 6.25 μg ml^−1, 48 hours, read-out: (%) Mortality of MCF7) [%] | cytotoxicity at 6.25 µg/mL ([2]; up to 6.25 μg ml^−1, 48 hours) [%] | cytotoxicity at 6.25 µg/mL (PC3 (prostatic cancer); up to 6.25 μg ml^−1, 48 hours) [%] | IC50 [4] [µM]
72.3 ± 0.34 | Cc1c(C(=O)C=Cc2ccco2)c(-c2cccs2)nn1-c1ccc([N+](=O)[O-])cc1 [Compound 7a, 3-(Furan-2-yl)-1-(5-methyl-1-(4-nitrophenyl)-3-(thiophen-2-yl)-1H-pyrazol-4-yl)prop-2-en-1-one] | 63.5 ± 0.11 | 17.3 ± 0.13 | 3.8 ± 0.65 | 11.2 ± 0.48 | – | – | – | –
– | Cc1c(C(=O)C=Cc2cccs2)c(-c2cccs2)nn1-c1ccc([N+](=O)[O-])cc1 [Compound 7b, 1-(5-Methyl-1-(4-nitrophenyl)-3-(thiophen-2-yl)-1H-pyrazol-4-yl)-3-(thiophen-2-yl)prop-2-en-1-one] | 45.3 ± 0.98 | 32.5 ± 0.74 | 4.2 ± 0.73 | – | – | – | – | –
– | Cc1c(C(=O)C=Cc2ccncc2)c(-c2cccs2)nn1-c1ccc([N+](=O)[O-])cc1 [Compound 7c, 1-(5-Methyl-1-(4-nitrophenyl)-3-(thiophen-2-yl)-1H-pyrazol-4-yl)-3-(pyridin-4-yl)prop-2-en-1-one] | – | – | – | 52.3 ± 0.76 | 100 | 100 | 100 | 86.2 ± 0.22
– | Cc1c(C(=O)C=Cc2nn(-c3ccccc3)cc2-c2ccccc2)c(-c2cccs2)nn1-c1ccc([N+](=O)[O-])cc1 [Compound 9a, 3-(1,4-Diphenyl-1H-pyrazol-3-yl)-1-(5-methyl-1-(4-nitrophenyl)-3-(thiophen-2-yl)-1H-pyrazol-4-yl)prop-2-en-1-one] | 42.3 ± 0.21 | 50.3 ± 0.42 | 4.5 ± 0.26 | – | – | – | – | –
– | Cc1ccc(-c2cn(-c3ccccc3)nc2C=CC(=O)c2c(-c3cccs3)nn(-c3ccc([N+](=O)[O-])cc3)c2C)cc1 [Compound 9b, 1-(5-Methyl-1-(4-nitrophenyl)-3-(thiophen-2-yl)-1H-pyrazol-4-yl)-3-(1-phenyl-4-(p-tolyl)-1H-pyrazol-3-yl)prop-2-en-1-one] | 44.5 ± 0.74 | 39.5 ± 0.91 | 27.2 ± 0.31 | – | – | – | – | –
– | COc1ccc(-c2cn(-c3ccccc3)nc2C=CC(=O)c2c(-c3cccs3)nn(-c3ccc([N+](=O)[O-])cc3)c2C)cc1 [Compound 9c, 3-(4-(4-Methoxyphenyl)-1-phenyl-1H-pyrazol-3-yl)-1-(5-methyl-1-(4-nitrophenyl)-3-(thiophen-2-yl)-1H-pyrazol-4-yl)prop-2-en-1-one] | 25.2 ± 0.41 | 19.8 ± 0.68 | 2.9 ± 0.57 | – | – | – | – | –
– | Cc1c(C(=O)C=Cc2nn(-c3ccccc3)cc2-c2ccc(Cl)cc2)c(-c2cccs2)nn1-c1ccc([N+](=O)[O-])cc1 [Compound 9d, 3-(4-(4-Chlorophenyl)-1-phenyl-1H-pyrazol-3-yl)-1-(5-methyl-1-(4-nitrophenyl)-3-(thiophen-2-yl)-1H-pyrazol-4-yl)prop-2-en-1-one] | 44.2 ± 0.33 | 54.5 ± 0.84 | 3.5 ± 0.92 | – | – | – | – | –
– | Cc1c(C(=O)C=Cc2nn(-c3ccccc3)cc2-c2cccs2)c(-c2cccs2)nn1-c1ccc([N+](=O)[O-])cc1 [Compound 9f, 1-(5-Methyl-1-(4-nitrophenyl)-3-(thiophen-2-yl)-1H-pyrazol-4-yl)-3-(1-phenyl-4-(thiophen-2-yl)-1H-pyrazol-3-yl)prop-2-en-1-one] | 80.4 ± 0.25 | 16.5 ± 0.35 | 4.5 ± 0.23 | – | – | – | – | –
